Measurements taken from patent US20250281462A1, “THERAPEUTICALLY EFFECTIVE ORAL ADMINISTRATION OF A 2 ARYLBENZIMIDAZOLE” (Tranquis Therapeutics, Inc., priority 2021, published 2025).
Read-outs that look alike come from different tables or passages of the source.

Test: Plasma concentrations of TQS-168 and TQS-621 after single oral dose 50 mg/kg in mice, three formulations
Assay type: in vivo
Details: male, C57BL/6, mouse, plasma, po, 50 mg/kg; for Cmax / AUC(0-t) / Tmax / AUC(0-inf) / half-life: mice plasma; for Cmax: read-out: Cmax; for Tmax: read-out: tmax
Method: In a second experiment, mice were administered 50 mg/kg TQS-168 by oral gavage. For Group 1, TQS-168 was prepared at a concentration of 5.0 mg/mL in a suspension with […] in PBS. For Group 2, TQS-168 was prepared at a concentration of 5.0 mg/mL as a solution in 10 polyethylene glycol (PEG) 400|30 Kleptose (Roquete)|60% water.
Plasma exposures for Group 1 mice (ng/mL) are presented in Table 2 and for Group 2 mice in Table 3.
C57BL/6 male mice were administered a single dose of TQS-168 at 50 mg/kg using one of three formulations: Group 1-5.0 mg/ml suspension in 0.5% methylcellulose in PBS; Group 2-5.0 mg/ml solution in PEG400 (Fluka) 10%|Kleptose (Roquette) 30%|sterile water 60%; Group 3-5.0 mg/ml suspension in Labrafil M 1944 CS (Gattefosse) 30%|Masine CC (Gattefosse) 5%|Miglyol 812N 10%|sterile water 55%.
Plasma concentrations of TQS-168 and TQS-621 were measured overtime.

[1] = TQS-168 50 mg/kg p.o., Group 1 (suspension, 0.5% methylcellulose in PBS), individual mouse
[2] = TQS-168 50 mg/kg p.o., Group 1 (suspension, 0.5% methylcellulose in PBS), mean
[3] = TQS-168 50 mg/kg p.o., Group 2 (solution, PEG400/Kleptose/water), individual mouse
[4] = TQS-168 50 mg/kg p.o., Group 2 (solution, PEG400/Kleptose/water), mean
[5] = TQS-168 50 mg/kg p.o., Group 3 (suspension, Labrafil/Masine/Miglyol/water), individual mouse
[6] = TQS-168 50 mg/kg p.o., Group 3 (suspension, Labrafil/Masine/Miglyol/water), mean
[7] = mice, 50 mg/kg p.o., Group 1 (suspension, methylcellulose in PBS), individual mouse, read-out: Calculated Concentration in plasma
[8] = mice, 50 mg/kg p.o., Group 1 (suspension, methylcellulose in PBS), mean, read-out: Calculated Concentration in plasma
[9] = mice, 50 mg/kg p.o., Group 2 (solution, PEG 400/Kleptose/water), individual mouse, read-out: Calculated Concentration in plasma
[10] = mice, 50 mg/kg p.o., Group 2 (solution, PEG 400/Kleptose/water), mean, read-out: Calculated Concentration in plasma

## CC(C)(C)c1ccc(-c2nc3ccccc3[nH]2)cc1 [TQS-168, 2-(4-tert-butylphenyl)-1H-benzimidazole]
50 mg/kg p.o., Group 1 (suspension)
  Cmax: 4.5 µM
50 mg/kg p.o., Group 2 (solution)
  Cmax: 8.54 µM
50 mg/kg p.o., Group 3 (suspension)
  Cmax: 2.4 µM
[1]
  AUC(0-t): 5040 ng·h/mL
  Cmax: 1280 ng/mL
  Tmax: 1 h
[2]
  AUC(0-inf): 8110 ng·h/mL
  AUC(0-t): 5970 ng·h/mL
  half-life: 4.3 h
  Cmax: 1120 ng/mL
  Tmax: 0.833 h
[3]
  AUC(0-inf): 11400 ng·h/mL
  AUC(0-t): 10600 ng·h/mL
  half-life: 2.81 h
  Cmax: 1950 ng/mL
  Tmax: 0.5 h
[4]
  AUC(0-inf): 11400 ng·h/mL
  AUC(0-t): 10700 ng·h/mL
  half-life: 2.82 h
  Cmax: 2140 ng/mL
  Tmax: 0.833 h
[5]
  AUC(0-inf): 4250 ng·h/mL
  AUC(0-t): 4110 ng·h/mL
  half-life: 1.47 h
  Cmax: 611 ng/mL
[6]
  AUC(0-inf): 4150 ng·h/mL
  AUC(0-t): 3930 ng·h/mL
  half-life: 1.71 h
  Cmax: 611 ng/mL
  Tmax: 3.17 h
[7]
  concentration at 0.25 h: 586 ng/mL
  concentration at 1 h: 1280 ng/mL
  concentration at 4 h: 435 ng/mL
[8]
  concentration at 0.25 h: 653 ng/mL
  concentration at 0.5 h: 949 ng/mL
  concentration at 1 h: 1100 ng/mL
  concentration at 2 h: 776 ng/mL
  concentration at 4 h: 435 ng/mL
  concentration at 8 h: 446 ng/mL
mice, 50 mg/kg p.o., Group 1 (suspension, methylcellulose in PBS), 12 hr, mean, read-out: Calculated Concentration in plasma
  concentration at 12 h: 187 ng/mL
[9]
  concentration at 0.25 h: 656 ng/mL
  concentration at 0.5 h: 1950 ng/mL
  concentration at 1 h: 1520 ng/mL
  concentration at 2 h: 1810 ng/mL
  concentration at 4 h: 1330 ng/mL
  concentration at 8 h: 374 ng/mL
[10]
  concentration at 0.25 h: 900 ng/mL
  concentration at 0.5 h: 1960 ng/mL
  concentration at 1 h: 1990 ng/mL
  concentration at 2 h: 1760 ng/mL
  concentration at 4 h: 1200 ng/mL
